In patent publication US11702404B2, “GLP-1R modulating compounds” (priority 2019, dated 2023):
Where two headings read alike, the source gives them in different places.

Columns and labels:
[1] = Microsomal stability, human liver microsomes (predicted hepatic clearance); details: predicted from in vitro microsomal stability data
GLP-1R = GLP-1R (Homo sapiens, UniProt P43220); test: GLP-1R activation: cAMP increase in CHO cells stably expressing GLP-1R; assay type: cell-based
[2] = cAMP increase, CHO cells stably expressing GLP-1R, 10 point dose response, 30 minutes incubation, read-out: EC50

GLP-1R, sequence (P43220 24-463): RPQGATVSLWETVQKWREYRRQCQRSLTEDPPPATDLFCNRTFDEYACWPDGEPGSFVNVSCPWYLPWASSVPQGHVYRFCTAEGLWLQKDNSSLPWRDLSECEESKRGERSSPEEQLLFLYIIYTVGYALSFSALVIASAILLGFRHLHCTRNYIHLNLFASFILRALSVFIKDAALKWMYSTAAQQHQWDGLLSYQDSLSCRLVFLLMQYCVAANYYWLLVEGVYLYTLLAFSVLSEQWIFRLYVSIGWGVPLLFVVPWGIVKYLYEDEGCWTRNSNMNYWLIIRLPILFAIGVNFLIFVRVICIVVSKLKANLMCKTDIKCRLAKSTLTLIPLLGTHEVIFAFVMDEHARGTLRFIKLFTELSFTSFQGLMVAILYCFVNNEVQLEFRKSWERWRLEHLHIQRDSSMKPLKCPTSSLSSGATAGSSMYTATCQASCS

| Structure (SMILES) | Predicted Hepatic Clearance (Pred. Cl.) [1] [L/h/kg] | EC50 (GLP-1R; [2]) [nM] | EC50 (GLP-1R; EC50 (nM)) [nM] | EC50 (GLP-1R; read-out: EC50) [nM] |
| --- | --- | --- | --- | --- |
| N#Cc1ccc(COc2cccc(-c3ccc(Cc4nc5ccc(C(=O)O)cc5n4CC4CCS4(=O)=O)c(F)c3)n2)c(F)c1 (single isomer, unassigned) [Example 69, 2-(4-(6-((4-cyano-2-fluorobenzyl)oxy)pyridin-2-yl)-2-fluorobenzyl)-1-((1,1-dioxidothietan-2-yl)methyl)-1H-benzo[d]imidazole-6-carboxylic acid] | <0.11 | 12 |  |  |
| COCCn1c(Cc2cc(F)c(-c3cccc(OCc4ccc(C#N)c(F)c4F)n3)cc2F)nc2ccc(C(=O)O)cc21 [Example 859] | 0.11 | 11.6 |  |  |
| COC[C@@H](Cn1c(Cc2cc(F)c(-c3cccc(OCc4ccc(C#N)cc4F)n3)cc2F)nc2ccc(C(=O)O)cc21)OC [Example 621] | 0.64 |  | 17.4 |  |
| CN1C[C@@](C)(Cn2c(Cc3cc(F)c(-c4cccc(OCc5ccc(C#N)cc5F)n4)cc3F)nc3ccc(C(=O)O)cc32)C1=O (racemic) [Example 272, 2-(4-(6-((4-cyano-2-fluorobenzyl)oxy)pyridin-2-yl)-2,5-difluorobenzyl)-1-((1,3-dimethyl-2-oxoazetidin-3-yl)methyl)-1H-benzo[d]imidazole-6-carboxylic acid] | 0.58 | 1.66 |  |  |
| COCCC1(Cn2c(Cc3cc(F)c(-c4cccc(OCc5ccc(C#N)cc5F)n4)cc3F)nc3ccc(C(=O)O)cc32)CC1 [Example 739] | 0.11 | 0.74 |  |  |
| COC(Cn1c(Cc2ccc(-c3cccc(OCc4ccc(C#N)cc4F)n3)cc2F)nc2ccc(C(=O)O)cc21)C(N)=O (single isomer, unassigned) [Example 334, 1-(3-amino-2-methoxy-3-oxopropyl)-2-(4-(6-((4-cyano-2-fluorobenzyl)oxy)pyridin-2-yl)-2-fluorobenzyl)-1H-benzo[d]imidazole-6-carboxylic acid] | 0.2 | 7.11 |  |  |
| COc1cc(C#N)ccc1COc1nccc(-c2cc(F)c(Cc3nc4ccc(C(=O)O)cc4n3CC3(CF)CC3)cc2F)n1 [Example 430, 2-(4-(2-((4-cyano-2-methoxybenzyl)oxy)pyrimidin-4-yl)-2,5-difluorobenzyl)-1-((1-(fluoromethyl)cyclopropyl)methyl)-1H-benzo[d]imidazole-6-carboxylic acid] | <0.11 | 0.67 |  |  |
| N#Cc1ccc(COc2nccc(-c3ccc(Cc4nc5ccc(C(=O)O)cc5n4Cc4ncco4)cc3F)n2)c(F)c1 [Example 622] | 0.38 | 2.68 |  |  |
| COCCn1c(Cc2ccc(-c3cccc(OCc4ccc(C#N)cc4F)n3)cc2C#N)nc2ccc(C(=O)O)cc21 [Example 22, 2-(2-cyano-4-(6-((4-cyano-2-fluorobenzyl)oxy)pyridin-2-yl)benzyl)-1-(2-methoxyethyl)-1H-benzo[d]imidazole-6-carboxylic acid] | 0.18 | 0.78 |  |  |
| COCCn1c(Cc2cc(F)c(-c3cccc(OCc4cccc(Br)c4)n3)cc2F)nc2ccc(C(=O)O)cc21 [Example 876] | 0.11 | 27.6 |  |  |
| N#CCC1(Cn2c(Cc3ccc(-c4ccnc(OCc5ccc(C#N)cc5F)n4)c(F)c3)nc3ccc(C(=O)O)cc32)CC1 [Example 281, 2-(4-(2-((4-cyano-2-fluorobenzyl)oxy)pyrimidin-4-yl)-3-fluorobenzyl)-1-((1-(cyanomethyl)cyclopropyl)methyl)-1H-benzo[d]imidazole-6-carboxylic acid] | 0.4 | 2.3 |  |  |
| COCCn1c(C2CCc3cc(-c4cccc(OCc5ccc(C#N)cc5F)n4)ccc32)nc2ccc(C(=O)O)cc21 (single isomer, unassigned) [Example 46, 2-(5-(6-((4-cyano-2-fluorobenzyl)oxy)pyridin-2-yl)-2,3-dihydro-1H-inden-1-yl)-1-(2-methoxyethyl)-1H-benzo[d]imidazole-6-carboxylic acid] | 0.3 | 62.4 |  |  |
| CO[C@H]1CN(C(C)=O)C[C@H]1n1c(Cc2cc(F)c(-c3cccc(OCc4ccc(C#N)cc4F)n3)cc2F)nc2ccc(C(=O)O)cc21 [Example 918, 3-[(3R,4S)-1-acetyl-4-methoxy-pyrrolidin-3-yl]-2-[[4-[6-[(4-cyano-2-fluoro-phenyl)methoxy]-2-pyridyl]-2,5-difluoro-phenyl]methyl]benzimidazole-5-carboxylic acid] | 0.29 |  |  | 24.9 |
| N#Cc1ccc(COc2cccc(-c3ccc(Cc4nc5ccc(C(=O)O)cc5n4CC4(c5cccnc5)CC4)c(F)c3)n2)c(F)c1 [Example 292, 2-(4-(6-((4-cyano-2-fluorobenzyl)oxy)pyridin-2-yl)-2-fluorobenzyl)-1-((1-(pyridin-3-yl)cyclopropyl)methyl)-1H-benzo[d]imidazole-6-carboxylic acid] | 0.57 | 49.4 |  |  |
| COCCn1c(Cc2ccc(-c3cccc(OCc4ccc(C#N)cc4F)n3)c(N)c2)nc2ccc(C(=O)O)cc21 [Example 259, 2-(3-amino-4-(6-((4-cyano-2-fluorobenzyl)oxy)pyridin-2-yl)benzyl)-1-(2-methoxyethyl)-1H-benzo[d]imidazole-6-carboxylic acid] | 0.2 | 66.9 |  |  |
| CO[C@H]1C[C@H](Cn2c(Cc3cc(F)c(-c4cccc(OCc5ccc(C#N)cc5F)n4)cc3F)nc3ccc(C(=O)O)cc32)C1 [Example 745] | 0.11 | 83.5 |  |  |
| N#Cc1ccc(COc2cccc(-c3ccc(Cc4nc5ccc(C(=O)O)cc5n4Cc4ccccc4)c(F)c3)n2)c(F)c1 [Example 531, 1-benzyl-2-(4-(6-((4-cyano-2-fluorobenzyl)oxy)pyridin-2-yl)-2-fluorobenzyl)-1H-benzo[d]imidazole-6-carboxylic acid] | 0.135 | 12.8 |  |  |
| N#Cc1ccc(COc2cccc(-c3ccc(Cc4nc5ccc(C(=O)O)cc5n4C4CCC4)c(F)c3)n2)c(F)c1 [Example 223, 2-(4-(6-((4-cyano-2-fluorobenzyl)oxy)pyridin-2-yl)-2-fluorobenzyl)-1-cyclobutyl-1H-benzo[d]imidazole-6-carboxylic acid] | 0.21 | 16.4 |  |  |
| N#Cc1cc(F)c(COc2cccc(-c3cc(F)c(Cc4nc5ccc(C(=O)O)cc5n4C[C@@H]4CCO4)c(F)c3)n2)cc1F [Example 680] | 0.33 | 0.11 |  |  |
| COCCn1c(Cc2cc(F)c(-c3ccc(F)c(OCc4ccc(C#N)cc4F)n3)cc2F)nc2ccc(C(=O)O)cc21 [Example 217, 2-(4-(6-((4-cyano-2-fluorobenzyl)oxy)-5-fluoropyridin-2-yl)-2,5-difluorobenzyl)-1-(2-methoxyethyl)-1H-benzo[d]imidazole-carboxylic acid] | 0.165 |  | 1.72 |  |
| COCCn1c(Cc2cc(F)c(-c3cccc(OCc4cc(F)c(C(F)F)cc4F)n3)cc2F)nc2ccc(C(=O)O)cc21 [Example 863] | 0.29 | 5.51 |  |  |
| N#CCCn1c(Cc2cc(F)c(-c3cccc(OCc4ccc(C#N)cc4F)n3)cc2F)nc2ccc(C(=O)O)cc21 [Example 305, 2-(4-(6-((4-cyano-2-fluorobenzyl)oxy)pyridin-2-yl)-2,5-difluorobenzyl)-1-(2-cyanoethyl)-1H-benzo[d]imidazole-6-carboxylic acid] | 0.28 | 1.25 |  |  |
| COC1(Cn2c(Cc3cc(F)c(-c4cccc(OCc5ccc(C#N)cc5F)n4)cc3F)nc3ccc(C(=O)O)cc32)CN(C2COC2)C1 [Example 696] | 0.65 | 592 |  |  |
| N#CCC1(Cn2c(Cc3ccc(-c4ccnc(OCc5ccc(C#N)cc5F)n4)cc3F)nc3c(F)cc(C(=O)O)cc32)CC1 [Example 168, 2-(4-(2-((4-cyano-2-fluorobenzyl)oxy)pyrimidin-4-yl)-2-fluorobenzyl)-1-((1-(cyanomethyl)cyclopropyl)methyl)-4-fluoro-1H-benzo[d]imidazole-6-carboxylic acid] | <0.11 | 1.06 |  |  |
| N#Cc1ccc(COc2cccc(-c3cc(F)c(Cc4nc5ccc(C(=O)O)cc5n4C4CCCOC4)cc3F)n2)c(F)c1 (stereo not shown) [Example 838] | 0.26 | 3.6 |  |  |
| COCCC1(Cn2c(Cc3ccc(-c4cccc(OCc5ccc(C#N)cc5F)n4)cc3F)nc3ccc(C(=O)O)cc32)CC1 [Example 291, 2-(4-(6-((4-cyano-2-fluorobenzyl)oxy)pyridin-2-yl)-2-fluorobenzyl)-1-((1-(2-methoxyethyl)cyclopropyl)methyl)-1H-benzo[d]imidazole-6-carboxylic acid] | <0.11 | 1.06 |  |  |
| O=C(O)c1ccc2nc(Cc3ccc(-c4cccc(OCc5ccc(C(F)F)cc5F)n4)cc3F)n(CC34CC(CO3)C4)c2c1 [Example 647] | 0.21 | 3.02 |  |  |
| N#Cc1ccc(COc2nc(-c3cc(F)c(Cc4nc5c(F)cc(C(=O)O)cc5n4C[C@@H]4CCO4)cc3F)ncc2F)c(F)c1 [Example 131, (S)-2-(4-(4-((4-cyano-2-fluorobenzyl)oxy)-5-fluoropyrimidin-2-yl)-2,5-difluorobenzyl)-4-fluoro-1-(oxetan-2-ylmethyl)-1H-benzo[d]imidazole-6-carboxylic acid] | 0.24 | 0.08 |  |  |
| C[C@@H](C1CC1)n1c(Cc2ccc(-c3cccc(OCc4ccc(C#N)cc4F)n3)cc2F)nc2ccc(C(=O)O)cc21 [Example 220, (S)-2-(4-(6-((4-cyano-2-fluorobenzyl)oxy)pyridin-2-yl)-2-fluorobenzyl)-1-(1-cyclopropylethyl)-1H-benzo[d]imidazole-6-carboxylic acid] | 0.39 | 37.8 |  |  |
